Test results published in PMC10958501, “4-Oxypiperidine Ethers as Multiple Targeting Ligands at Histamine H3 Receptors and Cholinesterases” (ACS Chemical Neuroscience, 2024).

Target: T1, gpH3R (Cavia porcellus, UniProt Q9JI35)
T1 construct: isolated guinea pig ileum electrically stimulated to contraction; from tissue; host or cells: distal ileum of male guinea pigs
Test: Ex vivo gpH3R screening on isolated guinea pig ileum electrically stimulated to contraction
Procedure: All newly synthesized compounds were evaluated ex vivo as H3R antagonists/inverse agonists on guinea pig ileum (gpH3R) stimulated electrically for contraction.[47]
The compounds were tested against H3R by an ex vivo assay using isolated guinea pig ileum electrically stimulated to contraction, according to Vollinga et al.[47] The pA2-values were calculated according to Arunlakshana and Schild.[59] The radioligand-displacement assay was performed in membrane fractions of HEK-293 cells stably expressing hH3R. Cell cultivation and membrane preparation were performed according to Kottke et al.[48] The Ki values were calculated from the IC50 values using the Cheng–Prusoff equation.[60] The statistical calculations were performed on −log(Ki). […] The inhibitory activities toward AChE and BuChE of novel ADS compounds were assessed in a spectrophotometric Ellman’s assay using electric eel AChE (eeAChE) and equine BuChE (eqBuChE).[57] Intracellular cAMP accumulation was measured with a homogeneous TR-FRET immunoassay using the LANCE Ultra cAMP kit (PerkinElmer) and HEK293 cells stably expressing the human histamine H3 receptor.[61] A more detailed description of the biological methods is presented in the Supporting Information.
3. Pharmacological assay results.
3.1. Ex vivo assay for histamine H 3R receptor antagonists on guinea pig ileum.
Male guinea pigs, weighing 300-400 g were euthanized by a blow to the neck. Following this, a 20-30 cm length of the distal ileum, apart from the terminal 5 cm was rapidly removed and […]
USA) (1·10 -6 mol/L). The intraluminal content was rinsed and the isolated intestine was cut into 1.5-2 cm segments. The preparations were mounted between two platinum electrodes […]
and indomethacin (3·10 -7 mol/L).
CO2 mixture and maintained at 37 °C under a constant load of 1.0 g (Hugo Sachs Hebel-Messvorsatz (Tl-2)/HF-modem; Hugo Sachs Elektronik, Hugstetten, Germany) connected to a pen recorder (Kipp & Zonen BD41, Delft, Holland). During an equilibration period of 60 min, the Krebs buffer was changed every 10 min. The preparations were then continuously stimulated at 15-20 V at a frequency of 0.1 Hz for a duration of 0.5 ms, with rectangular-wave electrical pulses (Grass Stimulator S-88; Grass Instruments Co., Quincy, Massachusetts, […]
USA). […] Five minutes before (R)-(−)-α- […]
methylhistamine (RAMH) (Toronto Research Chemicals Inc., North York, Canada), administration, pyrilamine (Sigma-Aldrich, St. Louis, MO, USA) (1·10-5 mol/L concentration in organ bath) was added. The first cumulative concentration-response curve was determined […]
second to fourth curve was measured against increasing antagonist concentration (incubation time 20 min). The pA2-values were calculated according to Arunlakshana and Schild 5.
Statistical analysis was carried out with the Student’s t-test. In all tests, a p<0.05 was […]
considered statistically significant. The pA2 values were compared with the affinity of thioperamide (Sigma-Aldrich, St. Louis, MO, USA). […]

T1 sequence (Q9JI35 whole entry): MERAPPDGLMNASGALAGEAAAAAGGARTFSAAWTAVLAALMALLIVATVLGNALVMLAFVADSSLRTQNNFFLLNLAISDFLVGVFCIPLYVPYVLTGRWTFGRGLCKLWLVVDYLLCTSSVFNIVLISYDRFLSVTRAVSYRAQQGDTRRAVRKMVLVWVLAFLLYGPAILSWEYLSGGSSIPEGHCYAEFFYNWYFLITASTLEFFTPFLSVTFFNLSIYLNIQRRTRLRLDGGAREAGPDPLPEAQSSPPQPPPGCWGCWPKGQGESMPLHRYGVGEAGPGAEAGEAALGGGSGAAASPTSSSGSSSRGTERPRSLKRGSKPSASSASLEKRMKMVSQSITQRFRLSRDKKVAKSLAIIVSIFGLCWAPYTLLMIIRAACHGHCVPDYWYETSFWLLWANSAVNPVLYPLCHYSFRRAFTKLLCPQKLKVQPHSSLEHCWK

SMILES: CCCN(C)Cc1ccc2cc(COC3CCN(Cc4ccccc4)CC3)ccc2c1 [ADS031, N-((6-(((1-Benzylpiperidin-4-yl)oxy)methyl)naphthalen-2-yl)methyl)-N-methylpropan-1-amine]
- Kb: 28.8 nM
